According to patent US10981879B2, “Thioether triazolopyridine and triazolopyrimidine inhibitors of myeloperoxidase” (BRISTOL-MYERS SQUIBB COMPANY, priority 2014, dated 2021):

target: myeloperoxidase (MPO) (Homo sapiens (Human), UniProt P05164); experiment: MPO chlorination assay (APF); format: biochemical; details: not given
Description: MPO chlorination activity was measured in 100 mM KPi (pH 7.4) by utilizing the non-fluorescent reagent Aminophenyl fluorescein (APF, Invitrogen catalog #A36003). APF is cleaved by (—OCl) to yield the fluorescent compound fluorescein. Reactions were carried out in 50 μL total volume by adding a 25 μL mixture of 200 pM myeloperoxidase and 120 mM NaCl to 100 nL inhibitor in 100% DMSO in a 384 well, non-binding surface clear bottom plate (CORNING® #3655). Enzyme, inhibitor, and chloride were preincubated for ten minutes at rt.
After the ten minute preincubation, 25 μL of an APF mixture containing […], 120 mM NaCl and 10 μM H2O2 was added to the plate using the internal dispensing system of a Hammatsu FDSS 6000. Kinetic determinations were carried out immediately on the FDSS 6000 (3 minute kinetic read, 1 read every second, ex: 485 nm, em: 535 nm). IC50 values for inhibitors were calculated by taking the slope of the linear portion of the kinetic measurement (20 seconds to ˜80-120 secs). […]
[formula] where A=minimal Y value (activity level of inhibited sample), B=maximal Y value (activity level of uninhibited sample), C=Log IC50, D=Hill Slope, x=concentration of inhibitor. EPX Bromination Assay

myeloperoxidase (MPO), sequence (P05164 49-745): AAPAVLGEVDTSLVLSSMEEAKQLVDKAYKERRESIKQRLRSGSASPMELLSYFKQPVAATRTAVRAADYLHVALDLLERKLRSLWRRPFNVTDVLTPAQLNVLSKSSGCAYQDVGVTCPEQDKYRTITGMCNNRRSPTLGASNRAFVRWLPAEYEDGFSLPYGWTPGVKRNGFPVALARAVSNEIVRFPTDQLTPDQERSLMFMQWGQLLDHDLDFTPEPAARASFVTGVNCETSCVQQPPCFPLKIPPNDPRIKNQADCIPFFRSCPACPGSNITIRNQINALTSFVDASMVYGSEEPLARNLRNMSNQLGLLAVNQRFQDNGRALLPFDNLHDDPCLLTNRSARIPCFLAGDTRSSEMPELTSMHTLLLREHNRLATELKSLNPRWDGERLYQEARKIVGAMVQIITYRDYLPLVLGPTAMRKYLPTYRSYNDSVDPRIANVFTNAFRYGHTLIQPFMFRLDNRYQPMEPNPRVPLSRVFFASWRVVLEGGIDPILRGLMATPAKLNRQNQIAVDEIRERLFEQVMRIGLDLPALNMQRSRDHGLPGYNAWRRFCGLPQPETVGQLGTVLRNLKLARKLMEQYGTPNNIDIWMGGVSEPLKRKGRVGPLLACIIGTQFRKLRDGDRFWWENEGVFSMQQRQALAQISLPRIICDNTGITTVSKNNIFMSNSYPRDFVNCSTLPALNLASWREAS

Row | IC50 [nM] | SMILES
1 | 60 to 200 | Nc1cc(SCc2nn(-c3ccccc3)nc2C(F)F)c2nn[nH]c2n1 [Example 153, 7-(((5-(difluoromethyl)-2-phenyl-2H-1,2,3-triazol-4-yl)methyl)thio)-3H-[1,2,3]triazolo [4,5-b]pyridin-5-amine]

same assay, conditions: MPO chlorination assay, ranges given; read-out: MPO chlorination assay IC50

Row | SMILES | IC50 [nM]
2 | Cc1nn(CC2CC2)c(C)c1CSc1cc(N)nc2[nH]nnc12 [Example 80, 7-(((1-(cyclopropylmethyl)-3,5-dimethyl-1H-pyrazol-4-yl)methyl)thio)-3H-[1,2,3] triazolo[4,5-b]pyridin-5-amine] | 60 to 200
3 | Nc1cc(SCc2ccccc2OC(F)(F)F)c2nn[nH]c2n1 [Example 29, 7-((2-(trifluoromethoxy)benzyl)thio)-3H-[1,2,3] triazolo[4,5-b]pyridin-5-amine] | ≤ 60
4 | N#Cc1ccc(F)cc1CSc1cc(N)nc2[nH]nnc12 [Example 20, 2-(((5-amino-3H-[1,2,3]triazolo[4,5-b]pyridin-7-yl)thio)methyl)-4-fluorobenzonitrile] | ≤ 60
5 | Cc1nn(C2CCC2)c(C)c1CSc1cc(N)nc2[nH]nnc12 [Example 82, 7-(((1-cyclobutyl-3,5-dimethyl-1H-pyrazol-4-yl)methyl)thio)-3H-[1,2,3] triazolo[4,5-b]pyridin-5-amine] | 60 to 200
6 | N#Cc1cccc(Cl)c1CSc1cc(N)nc2[nH]nnc12 [Example 117, 2-(((5-amino-3H-[1,2,3]triazolo[4,5-b]pyridin-7-yl)thio)methyl)-3-chlorobenzonitrile] | ≤ 60
7 | CN(C)CCNC(=O)c1ccccc1-n1cc(CSc2cc(N)nc3[nH]nnc23)c(C(F)F)n1 [Example 151, 2-(4-(((5-amino-3H-[1,2,3]triazolo[4,5-b]pyridin-7-yl)thio)methyl)-3-(difluoromethyl)-1H-pyrazol-1-yl)-N-(2-(dimethylamino)ethyl) benzamide] | ≤ 60
8 | Cc1nn(-c2ccccc2)c(Cl)c1CSc1nc(N)nc2[nH]nnc12 [Example 156, 7-(((5-chloro-3-methyl-1-phenyl-1H-pyrazol-4-yl)methyl)thio)-3H-[1,2,3] triazolo[4,5-b]pyrimidin-5-amine] | 60 to 200
9 | N#Cc1ccc(CSc2cc(N)nc3[nH]nnc23)c(F)c1 [Example 47, 4-(((5-amino-3H-[1,2,3]triazolo[4,5-b]pyridin-7-yl)thio)methyl)-3-fluorobenzonitrile] | ≤ 60
10 | Nc1cc(SC(CCCNCc2ccccc2)c2ccccc2)c2nn[nH]c2n1 (stereo not drawn) [Example 14, 7-((4-(Benzylamino)-1-phenylbutyl)thio)-3H-[1,2,3]triazolo[4,5-b]pyridin-5-amine] | ≤ 60
11 | CN(C)Cc1ccccc1-n1cc(CSc2cc(N)nc3[nH]nnc23)c(C(F)F)n1 [Example 150, 7-(((3-(difluoromethyl)-1-(2-((dimethylamino)methyl)phenyl)-1H-pyrazol-4-yl)methyl)thio)-3H-[1,2,3]triazolo [4,5-b]pyridin-5-amine] | ≤ 60
12 | COc1ccc(CSc2cc(N)nc3[nH]nnc23)cc1 [Example 9, 7-((4-methoxybenzyl)thio)-3H-[1,2,3]triazolo [4,5-b]pyridin-5-amine] | ≤ 60
13 | Cn1nc(C2CC2)cc1CSc1nc(N)nc2[nH]nnc12 [Example 165, 7-(((3-cyclopropyl-1-methyl-1H-pyrazol-5-yl)methyl)thio)-3H-[1,2,3] triazolo[4,5-d]pyrimidin-5-amine] | 200 to 1000
14 | Nc1cc(SCc2cc(Cl)cc(S(N)(=O)=O)c2Cl)c2nn[nH]c2n1 [Example 118, 3-(((5-amino-3H-[1,2,3]triazolo[4,5-b]pyridin-7-yl)thio)methyl)-2,5-dichlorobenzenesulfonamide] | ≤ 60
15 | Nc1cc(SCc2cn(-c3ccncc3)nc2C(F)F)c2nn[nH]c2n1 [Example 142] | ≤ 60
16 | N#Cc1ccc(F)cc1CSc1nc(N)nc2[nH]nnc12 [Example 157, 2-(((5-amino-3H-[1,2,3]triazolo[4,5-d]pyrimidin-7-yl)thio)methyl)-4-fluorobenzonitrile] | 200 to 1000
17 | Nc1cc(SCc2ccccc2C(F)(F)F)c2nn[nH]c2n1 [Example 5, 7-((2-(trifluoromethyl)benzyl)thio)-3H-[1,2,3] triazolo[4,5-b]pyridin-5-amine] | ≤ 60
18 | Cn1nc(C2CC2)c(Cl)c1CSc1cc(N)nc2[nH]nnc12 [Example 111, 7-(((4-chloro-3-cyclopropyl-1-methyl-1H-pyrazol-5-yl)methyl)thio)-3H-[1,2,3] triazolo[4,5-b]pyridin-5-amine] | 60 to 200
19 | Cc1cc(CSc2cc(N)nc3[nH]nnc23)n(C)n1 [Example 58, 7-(((1,3-dimethyl-1H-pyrazol-5-yl)methyl)thio)-3H-[1,2,3]triazolo[4,5-b] pyridin-5-amine] | 200 to 1000
20 | Nc1cc(SCc2c(F)ccc(Br)c2F)c2nn[nH]c2n1 [Example 43, 7-((3-bromo-2,6-difluorobenzyl)thio)-3H-[1,2,3]triazolo[4,5-b]pyridin-5-amine] | ≤ 60
21 | CN(C)Cc1cccc(CSc2cc(N)nc3[nH]nnc23)c1 [Example 93, 7-((3-((dimethylamino)methyl)benzyl)thio)-3H-[1,2,3]triazolo[4,5-b]pyridin-5-amine] | ≤ 60
22 | N#Cc1ccc(-c2ccncc2)c(CSc2cc(N)nc3[nH]nnc23)c1 [Example 130, 3-(((5-Amino-3H-[1,2,3]triazolo[4,5-b]pyridin-7-yl)thio)methyl)-4-(pyridin-4-yl)benzonitrile] | ≤ 60

The next lines start with the values.

Row | IC50 [nM] | SMILES
23 | 200 to 1000 | Cc1nn(Cc2ccccc2)c(Cl)c1CSc1nc(N)nc2[nH]nnc12 [Example 159, 7-(((1-benzyl-5-chloro-3-methyl-1H-pyrazol-4-yl)methyl)thio)-3H-[1,2,3] triazolo[4,5-d]pyrimidin-5-amine]
24 | 200 to 1000 | Nc1cc(SC(C(=O)NCc2ccccc2)c2ccccc2)c2nn[nH]c2n1 (stereo not drawn) [Example 127, 2-((5-Amino-3H-[1,2,3]triazolo[4,5-b]pyridin-7-yl)thio)-N-benzyl-2-phenylacetamide]
25 | 200 to 1000 | N#Cc1cccc(-n2ccnc2)c1CSc1cc(N)nc2[nH]nnc12 [Example 131, 2-(((5-amino-3H-[1,2,3]triazolo[4,5-b]pyridin-7-yl)thio)methyl)-3-(1H-imidazol-1-yl)benzonitrile]
26 | 60 to 200 | N#Cc1ccc(Cl)cc1CSc1cc(N)nc2[nH]nnc12 [Example 73, 2-(((5-amino-3H-[1,2,3]triazolo[4,5-b]pyridin-7-yl)thio)methyl)-4-chlorobenzonitrile]
27 | 200 to 1000 | N#Cc1ccc(CSc2cc(N)nc3[nH]nnc23)c(Cl)c1 [Example 124, 4-(((5-amino-3H-[1,2,3]triazolo[4,5-b]pyridin-7-yl)thio)methyl)-3-chlorobenzonitrile]
28 | 60 to 200 | CN(C)Cc1ccccc1CSc1cc(N)nc2[nH]nnc12 [Example 96, 7-((2-((dimethylamino)methyl)benzyl)thio)-3H-[1,2,3]triazolo[4,5-b]pyridin-5-amine]
29 | 200 to 1000 | CC1(NC(=O)c2ccc(F)c(CSc3cc(N)nc4[nH]nnc34)c2)CC1 [Example 55, 3-(((5-amino-3H-[1,2,3]triazolo[4,5-b]pyridin-7-yl)thio)methyl)-4-fluoro-N-(1-methylcyclopropyl) benzamide]
30 | 60 to 200 | Nc1cc(SC(c2ccccc2)C(O)c2ccccc2)c2nn[nH]c2n1 (stereo not drawn) [Example 46, 2-((5-amino-3H-[1,2,3]triazolo[4,5-b]pyridin-7-yl)thio)-1,2-diphenylethanol]
31 | 200 to 1000 | Nc1cccc(CSc2cc(N)nc3[nH]nnc23)n1 [Example 27, 7-(((6-aminopyridin-2-yl)methyl)thio)-3H-[1,2,3] triazolo[4,5-b]pyridin-5-amine]
32 | 60 to 200 | Nc1cc(SCc2cnn(Cc3ccccc3)c2)c2nn[nH]c2n1 [Example 32, 7-(((1-benzyl-1H-pyrazol-4-yl)methyl)thio)-3H-[1,2,3] triazolo[4,5-b]pyridin-5-amine]
33 | 60 to 200 | Cn1nc(-c2ccccc2)cc1CSc1cc(N)nc2[nH]nnc12 [Example 33, 7-(((1-methyl-3-phenyl-1H-pyrazol-5-yl)methyl)thio)-3H-[1,2,3]triazolo[4,5-b] pyridin-5-amine]
34 | 60 to 200 | Nc1cc(SCc2nn(Cc3ccccc3)c3ccccc23)c2nn[nH]c2n1 [Example 62, 7-(((1-benzyl-1H-indazol-3-yl)methyl)thio)-3H-[1,2,3] triazolo[4,5-b]pyridin-5-amine]
35 | 60 to 200 | COC(=O)C(Sc1cc(N)nc2[nH]nnc12)c1ccccc1Cl (stereo not drawn) [Example 50, methyl 2-((5-amino-3H-[1,2,3]triazolo[4,5-b]pyridin-7-yl)thio)-2-(2-chlorophenyl)acetate]
36 | 60 to 200 | Nc1cc(SCc2ccccc2-c2ccccn2)c2nn[nH]c2n1 [Example 92, 7-((2-(pyridin-2-yl)benzyl)thio)-3H-[1,2,3]triazolo[4,5-b]pyridin-5-amine]
37 | 60 to 200 | N#Cc1c(Cl)cccc1CSc1cc(N)nc2[nH]nnc12 [Example 75, 2-(((5-amino-3H-[1,2,3]triazolo[4,5-b]pyridin-7-yl)thio)methyl)-6-chlorobenzonitrile]
38 | 60 to 200 | Nc1cc(SCc2ccccc2CN2CCOCC2)c2nn[nH]c2n1 [Example 94, 7-((2-(morpholinomethyl)benzyl)thio)-3H-[1,2,3] triazolo[4,5-b]pyridin-5-amine]
39 | 60 to 200 | Nc1cc(SCc2cc(-c3ccccc3)on2)c2nn[nH]c2n1 [Example 101, 7-(((5-phenylisoxazol-3-yl)methyl)thio)-3H-[1,2,3] triazolo[4,5-b]pyridin-5-amine]
